Tests used:
5/6 nephrectomy rats [1] = test: Survival of 5/6 nephrectomised rats at 4 months; assay type: in vivo, male Wistar rats; conditions: 4 months into the study (3 months of drug treatment); candesartan cilexetil 5 mg/kg/day p.o., BH4 10 mg/kg/day i.p.
Method: Sixty male Wistar rats, mean weight 324±4 g, were fed a normal chow diet and allowed distilled water ad libitum. The 5/6 nephrectomy was performed according to standard protocol. In brief, the animals were anaesthetized with pentobarbital [35 mg/kg body weight (BW) intraperitoneally] and then underwent a right nephrectomy and ligature of two of the major branches of the left main renal artery (Nx) at day 0. AII the nephrectomies were carried out by one operator. The animals were then randomly assigned to one of five groups, as follows. • Group 1. SHAM (n=12); sham-operated rats. • Group 2. Nx (n=15); untreated 5/6 nephrectomy rats. • Group 3. C (n=11); 5/6 nephrectomy rats to which candesartan cilexetil (AstraZeneca AB) was given daily at a dose of 5 mg/kg BW/day. • Group 4. BH4 (n=10); 5/6 nephrectomy rats administered BH4 (Alexis Biochemical, Lausen), 10 mg/kg BW/day intraperitoneally (see Hypertension 38, 1044-1048 (2001), the disclosures of which document are hereby incorporated by reference). • Group 5. C+B (n=12); 5/6 nephrectomy rats to which candesartan cilexetil (AstraZeneca AB) was given daily at a dose of 5 mg/kg BW/day and BH4 (Alexis Biochemical, Lausen), was administered at a dose of 10 mg/kg BW/day intraperitoneally.
(§1) Drug administration was begun 30 days after surgery (at a point when the nephrectomised rats have already developed hypertension and renal insufficiency). […] Systolic blood pressure (SBP) was measured in trained unstressed rats 1 day before surgery and at 30, 60, 90 and 120 days, by tail cuff manometry using an automated sphygmomanometer (Narco Bio Systems, Austin, Tex., USA). The Animal Care and Use Committee of Meir Hospital approved all procedures.
Due to abnormalities found by way of post-study autopsies, two rats were excluded from the analysis of the “C+B” group (i.e. Group 5).
At a point 4 months into the study (3 months of drug treatment for rats in groups 3 to 5), survival rates were as follows.

5/6 nephrectomy rats [2] = test: Histological mesangial expansion score of kidneys of 5/6 nephrectomised rats; assay type: in vivo, male Wistar rats; conditions: 4 months into the study (3 months of drug treatment); candesartan cilexetil 5 mg/kg/day p.o., BH4 10 mg/kg/day i.p.; untreated Nx 200, sham 0
Method: Sixty male Wistar rats, mean weight 324±4 g, were fed a normal chow diet and allowed distilled water ad libitum. The 5/6 nephrectomy was performed according to standard protocol. In brief, the animals were anaesthetized with pentobarbital [35 mg/kg body weight (BW) intraperitoneally] and then underwent a right nephrectomy and ligature of two of the major branches of the left main renal artery (Nx) at day 0. AII the nephrectomies were carried out by one operator. The animals were then randomly assigned to one of five groups, as follows. • Group 1. SHAM (n=12); sham-operated rats. • Group 2. Nx (n=15); untreated 5/6 nephrectomy rats. • Group 3. […]
as §1, with “The Animal Care and Use Committee of Meir Hospital approved all procedures.” left out
Kidneys were fixed in neutral buffered formalin and embedded in paraffin for light microscopic study. […] A semi-quantitative score was used to assess the severity of glomerular lesions (see Nephrol. Dial. Transplant. 8, 501-506 (1993), the disclosures of which document are hereby incorporated by reference). […]

Row | SMILES | Survival (% age) (5/6 nephrectomy rats [1]) | ME Score (mesangial expansion score, median value) (5/6 nephrectomy rats [2]) | Survival (surviving rats of group) (5/6 nephrectomy rats [1])
1 | C[C@H](O)[C@H](O)[C@H]1CNc2nc(N)[nH]c(=O)c2N1 [BH4, Tetrahydrobiopterin] | (50%) | 158 | –
2 | CCOc1nc2cccc(C(=O)OC(C)OC(=O)OC3CCCCC3)c2n1Cc1ccc(-c2ccccc2-c2nnn[nH]2)cc1 (centres unmarked) [candesartan cilexetil, 1-(cyclohexyloxycarbonyloxy)ethyl ester of candesartan] | (63.64%) | 82 | 7 of 11

— patent US20090281083A1, “Combination Product” (ASTRAZENECA AB, priority 2005, published 2009)
